Data from article PMC9223658, “New Borane-Protected Derivatives of α-Aminophosphonous Acid as Anti-Osteosarcoma Agents: ADME Analysis and Molecular Modeling, In Vitro Studies on Anti-Cancer Activities, and NEP Inhibition as a Possible Mechanism of Anti-Proliferative Activity” (International Journal of Molecular Sciences, 2022).

Columns and labels:
HOS cells [1] = assay: Invasiveness, BME-coated transwell assay; type: cell-based, human; details: 24 h
Experimental: The invasiveness of the HOS osteosarcoma cells was assessed after treatment with compound 4 at concentrations of 12.5, 25 and 50 µM. The assay was carried out using the Trevigen’sCultureCoat®24-well Cell Invasion Assay (R&D Systems, Minneapolis, […], USA) equipped with a Basement Membrane Extract (BME)-coated membrane (8 µm) of transwell inserts. The assay was performed according to the manufacturer’s instruction and as in the transwell migration assay described above.

HOS cells [2] = assay: BrdU proliferation assay, 96 h; type: cell-based, human; details: 25 µM, cells pre-treated with 100 µM thiorphan for 1 h, 96 h
Experimental: (§1) In the study on the implication of NEP in the anti-proliferative activity of compound 4, cell proliferation was determined with the BrdU assay. Cell cultures were prepared as described above. Depending on the requirements, the HOS and Saos-2 cells were treated with non-cytotoxic concentrations of the NEP inhibitor—thiorphan (1, 5, 20, 100, 200, 500 µM) or pre-treated with thiorphan (100 µM) for 1 h. In this scheme, compound 4 (HOS—25 µM; Saos-2—60 µM) was added alone or in combination with the NEP inhibitor into the cell cultures. Finally, cell proliferation was evaluated with the BrdU Cell Proliferation Assay according to the manufacturer’s instructions (Millipore, Darmstadt, Germany) after a 96-h incubation.
(§2) The results of these assays were calculated as a percent of the untreated cells (100%; control). Then, the IC50 (concentration resulting in 50% inhibition of proliferation) and CC50 (concentration resulting in a 50% decrease in viability) values were calculated from a non-linear regression (log(inhibitor) vs. normalized response-variable slope) using GraphPad Prism 5.0 (GraphPAD Software Inc., San Diego, CA, USA). The IC50 and CC50 results were presented as themean ± SD of at least three experiments. In the case of the BrdU assay, the results were presented as a percent of untreated cells (100%; control).

Saos-2 cells [3] = assay: BrdU proliferation assay, 96 h; type: cell-based, human; details: Saos-2, 60 µM, cells pre-treated with 100 µM thiorphan for 1 h, 96 h
Experimental: as §1, §2

HOS cells [4] = assay: Cell cycle assay (PI/RNase, flow cytometry); type: cell-based, human; details: 72 h
Experimental: (§3) To examine the influence of compounds 4 and 6 on the distribution of cells in the cell cycle phases, the HOS and Saos-2 osteosarcoma cells (3.0 × 10^4 cells/mL) were seeded into 6-well plates (Nunc) and incubated with compounds 4 and 6 at concentrations of 12.5, 25, 50 µM and 20, 40, 80 µM as well as 15, 30; 60 µM and 21.25, 42.5, 85 µM, respectively. The compound solutions were prepared in a medium with 10% FBS. The control was constituted by the untreated cells (0 µM). The cells were treated for 72 h. Next, floating and adherent cells were harvested and subjected to further steps of the PI staining procedure (PI/RNase Staining Buffer, BD Pharmingen^TM, BD Biosciences, San Jose, CA, USA) previously described. The PI fluorescence intensity was measured using FACS Calibur (BD Pharmingen^TM), and the obtained data were analyzed using Cell Quest Pro Version 6.0. for the Macintosh operating system (BD Pharmingen^TM). The presented results were calculated as a percent of cells in the respective cell cycle phases (sub-G1, G0/G1, S and G2) among all the analyzed cells.

Saos-2 cells [5] = assay: Cell cycle assay (PI/RNase, flow cytometry); type: cell-based, human; details: 72 h
Experimental: as §3

NEP (neprilysin) = target: T1, NEP (neprilysin) (Homo sapiens, UniProt P08473); assay: Neutral endopeptidase activity assay (fluorometric); type: biochemical; details: vs control
T1 construct: purchased BioVision, Waltham, MA, USA
Experimental: The NEP activity in the presence of compounds 4 and 6 was determined using the Neprilysin Activity Assay Kit (BioVision, Waltham, MA, USA) according to the manufacturer’s instructions. The measurement is based on the ability of active neprilysin to cleave a synthetic substrate (Abz-based peptide) to release a fluorophore, which can be easily quantified using a fluorescence microplate reader. Briefly, pure neprilysin (5µLof stock solution) was incubated with solutions of the tested compounds (at least 4 concentrations in the range of 0.01–50 µM) for 10 min at 37 °C. The reaction was started by adding the substrate solution, and the final sample volume was 100µL. Fluorescence was measured (Ex/Em = 330/430nm) in the kinetic mode at 37 °C for 1–2 h. The same procedure was used to measure the control and background sample. Thiorphan was used as a reference NEP inhibitor. NEP activity was determined with the prepared Abz standard curve and expressed in µU/mL. The experiments were performed at least in triplicates, and the graphs represent mean ±SD values.

[6] = tested on: active caspase 3 in HOS cells; assay: Active caspase 3 assay (flow cytometry); type: cell-based, human; details: 72 h
Experimental: (§4) The level of active executor caspase 3 and initiator caspase 9 was determined to examine whether compounds 4 and 6 induced apoptosis in the HOS and Saos-2 cells. The influence of compounds 4 and 6 on HOS and Saos-2 were determined with the caspase 3 assay, whereas the influence of compound 6 on the HOS cells was investigated with the caspase 9 assay. In both assays, the osteosarcoma cells (3.0 × 10^5 cells/mL) were seeded in 6-well plates. The cells were treated with compounds 4 and 6 at concentrations of 12.5, 25, 50 µM and 20, 40, 80 µM as well as 15, 30, 60 µM and 21.25, 42.5, 85 µM for 72 h, respectively. The solutions of the compounds were prepared in a medium with 2% FBS. […] Next, floating and adherent cells were harvested and subjected to further steps of the staining procedures according to the manufacturer’s instruction. The level of active caspase 3 and caspase 9 was determined using the PE Active Caspase-3 Apoptosis Kit (BD Pharmingen^TM) and the CaspaTag^TM Caspase-9 in Situ Assay Kit (Millipore, Darmstadt, Germany), respectively. The number of stained cells (active caspase 3- or 9-positive cells) was measured using FACS Calibur, and the obtained data were analyzed using Cell Quest Pro Version 6.0. for the Macintosh operating system (BD Pharmingen™). The presented results were calculated as a percent of cells with either active caspase 3 or 9 among all the analyzed cells.

[7] = tested on: active caspase 3 in Saos-2 cells; assay: Active caspase 3 assay (flow cytometry); type: cell-based, human; details: 72 h
Experimental: as §4

[8] = tested on: active caspase 9 in HOS cells; assay: Active caspase 9 assay (flow cytometry); type: cell-based, human; details: 72 h
Experimental: as §4

T1 sequence (P08473 whole entry): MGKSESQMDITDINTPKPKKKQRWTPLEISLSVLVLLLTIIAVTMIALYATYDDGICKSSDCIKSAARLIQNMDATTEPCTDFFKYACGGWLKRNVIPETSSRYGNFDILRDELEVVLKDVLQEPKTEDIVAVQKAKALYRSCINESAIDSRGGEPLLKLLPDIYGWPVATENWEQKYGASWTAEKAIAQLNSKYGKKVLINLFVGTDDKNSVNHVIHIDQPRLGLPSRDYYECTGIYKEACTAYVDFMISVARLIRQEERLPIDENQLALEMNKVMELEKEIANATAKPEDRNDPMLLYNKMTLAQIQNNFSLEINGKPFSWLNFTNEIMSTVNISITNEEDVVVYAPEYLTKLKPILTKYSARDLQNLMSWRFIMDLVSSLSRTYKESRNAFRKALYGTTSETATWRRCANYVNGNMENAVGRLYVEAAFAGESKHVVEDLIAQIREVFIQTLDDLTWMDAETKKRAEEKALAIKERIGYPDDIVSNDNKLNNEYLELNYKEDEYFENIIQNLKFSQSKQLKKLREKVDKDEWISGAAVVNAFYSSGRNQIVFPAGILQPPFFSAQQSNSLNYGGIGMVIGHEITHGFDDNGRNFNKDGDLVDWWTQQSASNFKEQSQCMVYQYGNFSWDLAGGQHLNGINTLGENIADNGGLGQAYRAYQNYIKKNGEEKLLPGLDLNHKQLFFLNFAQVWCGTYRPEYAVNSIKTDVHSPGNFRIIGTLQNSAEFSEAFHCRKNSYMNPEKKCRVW

[BH3-][P+](OC(C)C)(OC(C)C)C(Nc1ccc(Br)cc1)c1ccc([N+](=O)[O-])cc1 (centres unmarked) [Compound 4, [1-(N-p-bromophenylamino)]-1-(p-nitrophenyl)methylphosphonousacid-borane diisopropyl ester]
decrease in cell invasiveness (HOS cells [1]; 12.5 µM): approx. 53%
decrease in cell invasiveness (HOS cells [1]; 25 µM): ~70%
decrease in cell invasiveness (HOS cells [1]; 50 µM): ~82%
effect of thiorphan pretreatment on anti-proliferative properties (HOS cells [2]): partially abolished
effect of thiorphan pretreatment on anti-proliferative properties (Saos-2 cells [3]): partially abolished
number of cells at G0/G1 phase (HOS cells [4]; 25 µM and 50 µM): significant decrease
number of cells at sub-G1 and G2 phases (HOS cells [4]; 25 µM and 50 µM): statistically significant increase
number of cells at sub-G1 phase (Saos-2 cells [5]; Saos-2, 30 µM and 60 µM): significant increase
inhibition at 0.1 µM (NEP (neprilysin); 0.1 µM): ~40%
inhibition at 0.5 µM (NEP (neprilysin); 0.5 µM): ~50%
inhibition at 10 µM (NEP (neprilysin); 10 µM): ~50%
inhibition at 50 µM (NEP (neprilysin)): ~50%
increase in active caspase 3 vs untreated cells ([6]; 25 µM): approx. 5%
increase in active caspase 3 vs untreated cells ([6]; 50 µM): ~6%
increase in active caspase 3 vs untreated cells ([7]; Saos-2, 30 µM): approx. 5%
increase in active caspase 3 vs untreated cells ([7]; Saos-2, 60 µM): ~10%

[BH3-][P+](OC(C)C)(OC(C)C)C(Nc1ccc(C)cc1)c1ccccc1 (centres unmarked) [Compound 6, [1-(N-p-tolylamino)]-1-phenylmethylphosphonous acid-borane diisopropyl ester]
increase in active caspase 9 vs untreated cells ([8]; 40 µM): approx. 4%
increase in active caspase 9 vs untreated cells ([8]; 80 µM): ~6%
number of cells at G0/G1 phase (HOS cells [4]; 40 µM and 80 µM): significant decrease
number of cells at sub-G1 and G2 phases (HOS cells [4]; 40 µM and 80 µM): statistically significant increase
number of cells at sub-G1 phase (Saos-2 cells [5]; Saos-2, 42.5 µM and 85 µM): significant increase
inhibition at 50 µM (NEP (neprilysin)): ~30%
increase in active caspase 3 vs untreated cells ([6]; 40 µM): approx. 9%
increase in active caspase 3 vs untreated cells ([6]; 80 µM): ~20%
increase in active caspase 3 vs untreated cells ([7]; Saos-2, 42.5 µM): approx. 4%
increase in active caspase 3 vs untreated cells ([7]; Saos-2, 85 µM): ~6%
